The values that follow are results of earlier work, collected in US11045483B2, “Pain-killing composition comprising a salicylic acid derivative” (AB7 INNOVATION S.A.S.U, priority 2015, dated 2021).

For this data set the following is noted: topical application of formulations; Sheree E. Cross et al., 1998.

Take `COC(=O)c1ccccc1O` [methyl salicylate]: the “time that must elapse before detection in the circulatory system” value is given as “around 60 minutes”.
